According to ChEMBL document CHEMBL3593202, “Design, Synthesis, and Characterization of 3-(Benzylidene)indolin-2-one Derivatives as Ligands for α-Synuclein Fibrils” (J Med Chem, 2015):
Active and inactive are the calls of the source. The rule behind the calls is not given here.

Tests used:
[1] = molecular target: T1, Alpha-synuclein (Homo sapiens, UniProt P37840); experiment: Displacement of Thio-T from recombinant alpha-synuclein (unknown origin) expressed in Escherichia coli after 1.5 hrs by fluorescence assay
[2] = molecular target: T2, Amyloid-beta precursor protein (Homo sapiens, UniProt P05067); experiment: Displacement of Thio-T from synthetic amyloid beta (1 to 42) (unknown origin) after 1.5 hrs by fluorescence assay
T2 sequence (P05067 whole entry): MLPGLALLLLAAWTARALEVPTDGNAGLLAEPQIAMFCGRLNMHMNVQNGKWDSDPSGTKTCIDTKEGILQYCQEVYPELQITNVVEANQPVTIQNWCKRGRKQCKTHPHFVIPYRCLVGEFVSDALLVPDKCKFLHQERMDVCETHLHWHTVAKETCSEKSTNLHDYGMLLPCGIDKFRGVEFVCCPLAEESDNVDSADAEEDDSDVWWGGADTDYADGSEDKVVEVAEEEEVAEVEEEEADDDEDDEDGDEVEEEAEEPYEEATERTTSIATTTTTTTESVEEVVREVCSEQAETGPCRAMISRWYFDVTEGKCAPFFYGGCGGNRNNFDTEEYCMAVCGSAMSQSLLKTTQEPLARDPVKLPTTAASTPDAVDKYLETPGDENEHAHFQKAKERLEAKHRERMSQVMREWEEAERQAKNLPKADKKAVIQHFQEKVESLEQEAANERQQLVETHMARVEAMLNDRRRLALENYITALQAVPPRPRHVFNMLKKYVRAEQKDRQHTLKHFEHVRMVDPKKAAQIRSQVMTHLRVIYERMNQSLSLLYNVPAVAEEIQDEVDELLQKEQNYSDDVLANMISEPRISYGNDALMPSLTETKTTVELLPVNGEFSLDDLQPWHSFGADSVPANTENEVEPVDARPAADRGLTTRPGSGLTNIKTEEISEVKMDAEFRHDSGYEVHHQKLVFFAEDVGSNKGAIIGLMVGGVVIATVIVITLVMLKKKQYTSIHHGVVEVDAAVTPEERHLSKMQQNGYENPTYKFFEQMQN

[3] = molecular target: T3, Microtubule-associated protein tau (Homo sapiens, UniProt P10636); experiment: Displacement of Thio-T from human recombinant tau (243 to 375) expressed in Escherichia coli BL21(DE3)RIL after 1.5 hrs by fluorescence assay
T3 sequence (P10636 whole entry): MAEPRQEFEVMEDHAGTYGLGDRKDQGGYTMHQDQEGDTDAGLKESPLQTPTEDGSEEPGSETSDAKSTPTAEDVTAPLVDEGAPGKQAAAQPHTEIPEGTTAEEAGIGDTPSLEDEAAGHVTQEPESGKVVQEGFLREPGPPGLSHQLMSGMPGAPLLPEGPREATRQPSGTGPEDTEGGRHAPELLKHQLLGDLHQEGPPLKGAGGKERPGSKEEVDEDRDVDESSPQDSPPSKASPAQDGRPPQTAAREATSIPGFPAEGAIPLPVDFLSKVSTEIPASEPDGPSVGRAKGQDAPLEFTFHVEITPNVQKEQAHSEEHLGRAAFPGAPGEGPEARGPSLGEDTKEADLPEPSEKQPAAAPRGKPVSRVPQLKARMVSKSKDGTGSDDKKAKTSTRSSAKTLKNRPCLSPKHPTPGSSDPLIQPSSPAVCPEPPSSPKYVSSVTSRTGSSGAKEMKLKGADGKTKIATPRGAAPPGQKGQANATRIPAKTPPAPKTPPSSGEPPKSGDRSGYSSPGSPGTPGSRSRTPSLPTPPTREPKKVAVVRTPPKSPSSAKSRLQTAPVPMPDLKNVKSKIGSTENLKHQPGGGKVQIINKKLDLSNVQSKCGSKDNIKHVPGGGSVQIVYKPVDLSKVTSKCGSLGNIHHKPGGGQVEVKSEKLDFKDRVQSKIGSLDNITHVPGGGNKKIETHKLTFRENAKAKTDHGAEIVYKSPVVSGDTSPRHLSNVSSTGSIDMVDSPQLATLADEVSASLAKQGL

[4] = Lipophilicity, log P of the compound; assay type: physicochemical; settings: octanol/water
[5] = molecular target: T1, Alpha-synuclein; experiment: Binding affinity to recombinant alpha-synuclein (unknown origin) expressed in Escherichia coli after 1 hr by scintillation counting
[6] = molecular target: T2, Amyloid-beta precursor protein; experiment: Binding affinity amyloid beta (1 to 42) (unknown origin) expressed in Escherichia coli after 1 hr by scintillation counting
[7] = molecular target: T3, Microtubule-associated protein tau; experiment: Binding affinity human recombinant tau (243 to 375) expressed in Escherichia coli BL21(DE3)RIL after 1 hr by scintillation counting
[8] = molecular target: T2, Amyloid-beta precursor protein; experiment: Binding affinity to amyloid beta in alzheimer's diseased human brain tissue at 5 uM after 20 mins by fluorescence microscopic analysis

| Activity [8] | SMILES | Ki [1] | Ki [2] | Ki [3] | logP [4] | Kd [5] | Kd [6] | Kd [7] |
| --- | --- | --- | --- | --- | --- | --- | --- | --- |
| – | O=C1Nc2ccccc2/C1=C/c1ccc([N+](=O)[O-])cc1 | 347 nM | 325 nM | 362 nM | – | – | – | – |
| – | CN(C)c1ccc(/C=C2\C(=O)N(Cc3ccccc3)c3ccccc32)cc1 | 144 nM | 260 nM | 798 nM | – | – | – | – |
| – | CN(C)c1ccc(/C=C2\C(=O)N(Cc3ccncc3)c3ccccc32)cc1 | 150 nM | – | 364 nM | – | – | – | – |
| – | CN(C)c1ccc(/C=C/C=C2\C(=O)N(Cc3ccncc3)c3ccccc32)cc1 | 92 nM | – | 188 nM | – | – | – | – |
| – | O=C1Nc2ccccc2/C1=C\c1ccc([N+](=O)[O-])cc1 | 622 nM | 439 nM | 528 nM | – | – | – | – |
| – | O=C1/C(=C\c2ccc([N+](=O)[O-])cc2)c2ccccc2N1Cc1ccccc1 | 483 nM | 460 nM | 1760 nM | – | – | – | – |
| – | O=C1/C(=C/c2ccc([N+](=O)[O-])cc2)c2ccccc2N1Cc1ccccc1 | 959 nM | 695 nM | 1410 nM | – | – | – | – |
| – | O=C1Nc2ccccc2/C1=C/C=C/c1ccc([N+](=O)[O-])cc1 | 14.6 nM | 36.2 nM | 27.1 nM | – | – | – | – |
| – | O=C1Nc2ccccc2/C1=C\C=C\c1ccc([N+](=O)[O-])cc1 | 211 nM | 60 nM | 209 nM | – | – | – | – |
| – | O=C1/C(=C\C=C\c2ccc([N+](=O)[O-])cc2)c2ccccc2N1Cc1ccccc1 | 25 nM | 214 nM | 121 nM | – | – | – | – |
| – | O=C1/C(=C/C=C/c2ccc([N+](=O)[O-])cc2)c2ccccc2N1Cc1ccccc1 | 193 nM | 235 nM | 590 nM | – | – | – | – |
| – | COc1ccc(CN2C(=O)/C(=C\C=C\c3ccc([N+](=O)[O-])cc3)c3ccccc32)cc1 | 12.9 nM | 131 nM | 72.4 nM | – | – | – | – |
| – | COc1ccc(CN2C(=O)/C(=C/C=C/c3ccc([N+](=O)[O-])cc3)c3ccccc32)cc1 | 81.9 nM | 138 nM | 318 nM | – | – | – | – |
| – | COc1cccc(CN2C(=O)/C(=C\C=C\c3ccc([N+](=O)[O-])cc3)c3ccccc32)c1 | 3.8 nM | 110 nM | 229 nM | – | – | – | – |
| – | COc1cccc(CN2C(=O)/C(=C/C=C/c3ccc([N+](=O)[O-])cc3)c3ccccc32)c1 | 64.7 nM | 265 nM | 355 nM | – | – | – | – |
| – | COc1ccc(CN2C(=O)/C(=C\C=C\c3ccc([N+](=O)[O-])cc3)c3ccccc32)cc1OC | 3.5 nM | 73.6 nM | 152 nM | – | – | – | – |
| – | COc1ccc(CN2C(=O)/C(=C/C=C/c3ccc([N+](=O)[O-])cc3)c3ccccc32)cc1OC | 53.3 nM | 130 nM | 630 nM | – | – | – | – |
| – | O=C1/C(=C\C=C\c2ccc([N+](=O)[O-])cc2)c2ccccc2N1Cc1ccc(OCCF)cc1 | 2.1 nM | 142 nM | 80.1 nM | 4.18 | – | – | – |
| – | O=C1/C(=C/C=C/c2ccc([N+](=O)[O-])cc2)c2ccccc2N1Cc1ccc(OCCF)cc1 | 76.1 nM | 125 nM | 456 nM | – | – | – | – |
| – | O=C1/C(=C\C=C\c2ccc([N+](=O)[O-])cc2)c2ccccc2N1Cc1ccc(OCC[18F])cc1 | – | – | – | – | 8.9 nM | 271 nM | 50 nM |
| – | CN(C)c1ccc(/C=C2\C(=O)Nc3ccccc32)cc1 (mixture of isomers) | 84.4 nM | 91.6 nM | 261 nM | – | – | – | – |
| – | CN(C)c1ccc(/C=C2\C(=O)N(c3ccccc3)c3ccccc32)cc1 (mixture of isomers) | 290 nM | 179 nM | 790 nM | – | – | – | – |
| – | CN(C)c1ccc(/C=C2\C(=O)Nc3ncccc32)cc1 (mixture of isomers) | 124 nM | 40 nM | 191 nM | – | – | – | – |

| Activity [8] | SMILES | Ki [1] | Ki [2] | Ki [3] | logP [4] | Kd [5] | Kd [6] | Kd [7] |
| --- | --- | --- | --- | --- | --- | --- | --- | --- |
| – | CN(C)c1ccc(/C=C2\C(=O)Nc3ccc(O)cc32)cc1 (mixture of isomers) | 407 nM | 94.8 nM | 212 nM | – | – | – | – |
| – | COc1ccc(CN2C(=O)/C(=C\c3ccc(N(C)C)cc3)c3ccccc32)cc1 (mixture of isomers) | 114 nM | 251 nM | 432 nM | – | – | – | – |
| – | CCOC(=O)N1C(=O)/C(=C\c2ccc(N(C)C)cc2)c2ccccc21 (mixture of isomers) | 343 nM | 140 nM | 1120 nM | – | – | – | – |
| – | CN(C)c1ccc(/C=C2\C(=O)N(Cc3ccccc3)c3ncccc32)cc1 (mixture of isomers) | 350 nM | 190 nM | 859 nM | – | – | – | – |
| – | COc1ccc(CN2C(=O)/C(=C\c3ccc(N(C)C)cc3)c3cccnc32)cc1 (mixture of isomers) | 79.5 nM | 113 nM | 853 nM | – | – | – | – |
| – | O=C1Nc2ccccc2/C1=C/C=C/c1ccccc1 (mixture of isomers) | 207 nM | 267 nM | 522 nM | – | – | – | – |
| – | COc1ccc(/C=C/C=C2\C(=O)Nc3ccccc32)cc1 (mixture of isomers) | 61.1 nM | 126 nM | 169 nM | – | – | – | – |
| Active | CN(C)c1ccc(/C=C/C=C2\C(=O)Nc3ccccc32)cc1 (mixture of isomers) | 40.7 nM | 27.6 nM | 53.7 nM | – | – | – | – |
| – | CN(C)c1ccc(/C=C/C=C2\C(=O)Nc3ncccc32)cc1 (mixture of isomers) | 11.5 nM | 15.3 nM | 35.1 nM | – | – | – | – |
| – | CN(C)c1ccc(/C=C/C=C2\C(=O)Nc3ccc(O)cc32)cc1 (mixture of isomers) | 54 nM | 37.1 nM | 48 nM | – | – | – | – |
| – | O=C1/C(=C\C=C\c2ccccc2)c2ccccc2N1Cc1ccccc1 (mixture of isomers) | 227 nM | 703 nM | 682 nM | – | – | – | – |
| – | COc1ccc(/C=C/C=C2\C(=O)N(Cc3ccccc3)c3ccccc32)cc1 (mixture of isomers) | 72.5 nM | 741 nM | 718 nM | – | – | – | – |
| – | CN(C)c1ccc(/C=C/C=C2\C(=O)N(C)c3ccccc32)cc1 (mixture of isomers) | 63.7 nM | 56 nM | 229 nM | – | – | – | – |
| – | CN(C)c1ccc(/C=C/C=C2\C(=O)N(Cc3ccccc3)c3ccccc32)cc1 (mixture of isomers) | 40.9 nM | 358 nM | 374 nM | – | – | – | – |
| – | COc1ccc(CN2C(=O)/C(=C\C=C\c3ccc(N(C)C)cc3)c3ccccc32)cc1 (mixture of isomers) | 54.6 nM | 130 nM | 240 nM | – | – | – | – |
| – | CN(C)c1ccc(/C=C/C=C2\C(=O)N(Cc3ccc([N+](=O)[O-])cc3)c3ccccc32)cc1 (mixture of isomers) | 4.2 nM | 92.4 nM | 90 nM | – | – | – | – |
| – | CCOC(=O)N1C(=O)/C(=C\C=C\c2ccc(N(C)C)cc2)c2ccccc21 (mixture of isomers) | 45.3 nM | 84 nM | 263 nM | – | – | – | – |
| – | CN(C)c1ccc(/C=C/C=C2\C(=O)N(Cc3ccccc3)c3ncccc32)cc1 (mixture of isomers) | 68.3 nM | 85.1 nM | 257 nM | – | – | – | – |
| – | COc1ccc(CN2C(=O)/C(=C\C=C\c3ccc(N(C)C)cc3)c3cccnc32)cc1 (mixture of isomers) | 29.8 nM | 107 nM | 204 nM | – | – | – | – |
| – | CN(C)c1ccc(/C=C/C=C2\C(=O)N(Cc3ccc(N)cc3)c3ccccc32)cc1 (mixture of isomers) | 43.6 nM | 98.9 nM | 131 nM | – | – | – | – |
| – | CN(C)c1ccc(/C=C/C=C2\C(=O)N(c3ccccc3)c3ccccc32)cc1 (mixture of isomers) | 68.1 nM | 287 nM | 465 nM | – | – | – | – |
| – | Nc1ccc(/C=C/C=C2\C(=O)Nc3ccccc32)cc1 (mixture of isomers) | 44.8 nM | 50.8 nM | 38.3 nM | – | – | – | – |
| – | CN(C)c1ccc(/C=C2\C(=O)N(C)c3ccccc32)cc1 (mixture of isomers) | 508 nM | 155 nM | 618 nM | – | – | – | – |
